From patent publication US10562878B2, “Cycloalkylamines as monoamine reuptake inhibitors” (Sunovion Pharmaceuticals Inc., priority 2006, dated 2020)
Structures can show the parent of a compound that is named as a salt. Where two headings read alike, the source gives them in different places.

Assays:
[1] = target: human dopamine transporter (Homo sapiens (Human), UniProt Q01959); assay: Dopamine functional uptake assay, recombinant human transporter in CHO-K1 or HEK293 cells; format: cell-based; conditions: read-out: hDAT IC50
human dopamine transporter, sequence (Q01959 whole entry): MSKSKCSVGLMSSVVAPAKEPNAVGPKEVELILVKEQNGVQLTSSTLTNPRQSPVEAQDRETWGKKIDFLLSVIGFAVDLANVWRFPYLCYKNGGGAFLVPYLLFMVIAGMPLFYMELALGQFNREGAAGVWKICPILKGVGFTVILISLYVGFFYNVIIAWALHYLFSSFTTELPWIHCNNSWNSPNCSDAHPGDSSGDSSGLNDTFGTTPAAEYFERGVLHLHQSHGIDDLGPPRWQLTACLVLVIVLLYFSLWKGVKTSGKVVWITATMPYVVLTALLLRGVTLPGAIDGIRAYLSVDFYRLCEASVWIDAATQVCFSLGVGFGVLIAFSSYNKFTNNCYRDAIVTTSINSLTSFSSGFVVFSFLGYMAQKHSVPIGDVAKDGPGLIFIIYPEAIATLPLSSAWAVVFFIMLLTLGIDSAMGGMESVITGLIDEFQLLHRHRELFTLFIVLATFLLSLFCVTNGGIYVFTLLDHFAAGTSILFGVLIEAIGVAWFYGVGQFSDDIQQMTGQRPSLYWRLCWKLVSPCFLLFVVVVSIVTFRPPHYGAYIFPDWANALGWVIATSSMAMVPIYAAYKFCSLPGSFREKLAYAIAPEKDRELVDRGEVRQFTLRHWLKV

[2] = target: human serotonin transporter (Homo sapiens (Human), UniProt P31645); assay: Serotonin functional uptake assay, recombinant human transporter in HEK-293 cells; format: cell-based
human serotonin transporter, sequence (P31645 whole entry): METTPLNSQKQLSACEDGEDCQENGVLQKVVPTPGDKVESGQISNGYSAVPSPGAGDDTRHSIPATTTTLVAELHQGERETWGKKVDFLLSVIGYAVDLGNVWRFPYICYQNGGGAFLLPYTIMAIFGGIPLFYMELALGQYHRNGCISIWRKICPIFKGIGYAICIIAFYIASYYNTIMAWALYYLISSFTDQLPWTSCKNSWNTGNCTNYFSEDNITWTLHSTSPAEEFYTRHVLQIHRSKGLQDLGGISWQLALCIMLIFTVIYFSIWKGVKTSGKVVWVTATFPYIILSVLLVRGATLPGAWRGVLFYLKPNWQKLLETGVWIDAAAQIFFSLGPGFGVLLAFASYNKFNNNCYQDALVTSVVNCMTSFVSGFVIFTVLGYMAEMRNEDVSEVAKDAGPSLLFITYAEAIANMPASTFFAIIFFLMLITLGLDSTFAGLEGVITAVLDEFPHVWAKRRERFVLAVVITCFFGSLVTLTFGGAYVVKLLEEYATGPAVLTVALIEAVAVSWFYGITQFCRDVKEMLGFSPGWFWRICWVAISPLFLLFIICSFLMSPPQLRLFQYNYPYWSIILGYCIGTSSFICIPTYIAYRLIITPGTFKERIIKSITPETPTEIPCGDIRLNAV

[3] = target: DA Transporter (DAT) sites in mouse brain (Mus musculus (Mouse), UniProt Q61327); assay: Ex vivo [3H] WIN 35428 binding to DAT sites in mouse brain after oral dosing; conditions: mice, 60 min after treatment
[4] = target: 5-HT Transporter (SERT) sites in mouse brain (Mus musculus (Mouse), UniProt Q60857); assay: Ex vivo [3H] citalopram binding to SERT sites in mouse brain after oral dosing; conditions: mice, 60 min after treatment
[5] = Human serotonin transporter uptake, read-out: hSERT IC50

SMILES | IC50 [1] | IC50 [2, 5] | other results
OC1CCCC1NCC1(c2ccc(Cl)c(Cl)c2)CCCCC1 (racemic) [Compound 116, (±) 2-((1-(3,4-dichlorophenyl)cyclohexyl)methylamino)cyclopentanol] | 0.003 µM | 2.06 µM | 
C[C@@H]1CCCC[C@@]1(CN)c1ccc(Cl)c(Cl)c1 (racemic) [Compound 174, (±)-cis-(1-(3,4-dichlorophenyl)-2-methylcyclohexyl)methanamine hydrochloride] | 2.78 µM | 0.246 µM | 
C[C@@H]1CCCC[C@@]1(CN(C)C)c1ccc(Cl)c(Cl)c1 (racemic) [Compound 175, (±) cis-1-(1-(3,4-dichlorophenyl)-2-methylcyclohexyl)-N,N-dimethylmethanamine hydrochloride] | 0.125 µM | 0.055 µM | 
CNC[C@@]1(c2ccc(Cl)c(Cl)c2)CCCC[C@H]1C (racemic) [Compound 176, (±) cis-1-(1-(3,4-dichlorophenyl)-2-methylcyclohexyl)-N-methylmethanamine] | 0.775 µM | 0.533 µM | 
CCNC[C@@]1(c2ccc(Cl)c(Cl)c2)CCCC[C@H]1C (racemic) [Compound 177, (±) cis-N-((1-(3,4-dichlorophenyl)-2-methylcyclohexyl)methyl)ethanamine] | 0.322 µM | 3.22 µM | 
CNC(=O)[C@@]1(c2ccc3ccccc3c2)CCCC[C@H]1O (relative stereo) [Compound 300, cis-2-hydroxy-N-methyl-1-(naphthalen-2-yl)cyclohexanecarboxamide] | 1.73 µM | > 10 µM | 
CNC(C)C1(c2ccc3ccccc3c2)CCCCC1 (single isomer, unassigned) [58 E1, N-methyl-1-(1-(naphthalen-2-yl)cyclohexyl)ethanamine] |  |  | DAT Mean Specific Binding ± S.E.M. ([3]; 1 mg/kg PO): 15732 ± 1360 dpm; DAT Mean Specific Binding ± S.E.M. ([3]; 3 mg/kg PO): 14938 ± 2613 dpm; DAT Mean Specific Binding ± S.E.M. ([3]; 10 mg/kg PO): 17215 ± 2151 dpm; DAT Mean Specific Binding ± S.E.M. ([3]; 30 mg/kg PO): 12876 ± 2152 dpm; receptor occupancy at 1 mg/kg ([3]; mouse, 1 mg/kg PO): 7%; receptor occupancy at 3 mg/kg ([3]; mouse, 3 mg/kg PO): 11%; receptor occupancy at 10 mg/kg ([3]; mouse, 10 mg/kg PO): -2%; receptor occupancy at 30 mg/kg ([3]; mouse, 30 mg/kg PO): 24%; SERT Mean Specific Binding ± S.E.M. ([4]; 1 mg/kg PO): 3245 ± 107 dpm; SERT Mean Specific Binding ± S.E.M. ([4]; 3 mg/kg PO): 3021 ± 182 dpm; SERT Mean Specific Binding ± S.E.M. ([4]; 10 mg/kg PO): 1799 ± 115 dpm; SERT Mean Specific Binding ± S.E.M. ([4]; 30 mg/kg PO): 469 ± 43 dpm; receptor occupancy at 1 mg/kg ([4]; mouse, 1 mg/kg PO): 5%; receptor occupancy at 3 mg/kg ([4]; mouse, 3 mg/kg PO): 11%; receptor occupancy at 10 mg/kg ([4]; mouse, 10 mg/kg PO): 47%; receptor occupancy at 30 mg/kg ([4]; mouse, 30 mg/kg PO): 86%
CNC[C@]1(c2ccc(Cl)cc2)CCCC[C@H]1O (single isomer, unassigned) [136 E1, trans-2-(4-chlorophenyl)-2-((methylamino)methyl)-cyclohexanol] | 2.87 µM |  | 
CNC[C@]1(c2ccc(Cl)cc2)CCCC[C@H]1O (single isomer, unassigned) [136 E2, trans-2-(4-chlorophenyl)-2-((methylamino)methyl)-cyclohexanol] | 3.37 µM |  | 
CNC[C@]1(c2cccc(Cl)c2)CCCC[C@H]1O (single isomer, unassigned) [138 E1, trans-2-(3-chlorophenyl)-2-((methylamino)methyl)cyclohexanol] | 0.918 µM |  | IC50 ([2]; hSERT IC50): > 10 µM
CNC[C@]1(c2cccc(Cl)c2)CCCC[C@H]1O (single isomer, unassigned) [138 E2, trans-2-(3-chlorophenyl)-2-((methylamino)methyl)cyclohexanol] | 2.54 µM | 7 µM | 
CNC[C@]1(c2ccc(OC)cc2)CCCC[C@H]1O (single isomer, unassigned) [140 E1, (±) trans-2-(4-Methoxyphenyl)-2-((methylamino)methyl)cyclohexanol] | 8.82 µM | 2.69 µM | 
CNC[C@]1(c2ccc(OC)cc2)CCCC[C@H]1O (single isomer, unassigned) [140 E2, (±) trans-2-(4-Methoxyphenyl)-2-((methylamino)methyl)cyclohexanol] | 5.67 µM |  | 
CNC[C@@]1(c2ccc(C(F)(F)F)cc2)CCCC[C@H]1O (single isomer, unassigned) [143 E2, cis-2-((methylamino)methyl)-2-(4-(trifluoromethyl)phenyl)cyclohexanol] |  | 7.17 µM | 
CNC[C@]1(c2ccc(C(F)(F)F)cc2)CCCC[C@H]1O (single isomer, unassigned) [144 E1, trans-2-((Methylamino)methyl)-2-(4-(trifluoromethyl)phenyl) cyclohexanol] |  | 5.63 µM | 
CNC[C@]1(c2ccc(OC(F)(F)F)cc2)CCCC[C@H]1O (single isomer, unassigned) [146 E1, trans-2-((Methylamino)methyl)-2-(4-(trifluoromethoxy)phenyl) cyclohexanol] |  | 4.54 µM | 
CNC[C@]1(c2ccc(OC(F)(F)F)cc2)CCCC[C@H]1O (single isomer, unassigned) [146 E2, trans-2-((Methylamino)methyl)-2-(4-(trifluoromethoxy)phenyl) cyclohexanol] |  | 2.28 µM | 
COc1ccc([C@]2(CN(C)C)CCCC[C@H]2O)cc1 (single isomer, unassigned) [155 E1, Cis-2-((dimethylamino)methyl)-2-(4-methoxyphenyl)cyclohexanol] |  | 2.99 µM | 
COc1ccc([C@]2(CN(C)C)CCCC[C@H]2O)cc1 (single isomer, unassigned) [155 E2, Cis-2-((dimethylamino)methyl)-2-(4-methoxyphenyl)cyclohexanol] |  | 6.28 µM | 
NC[C@]1(c2ccc(Cl)c(Cl)c2)CCC[C@H](O)C1 (single isomer, unassigned) [184 E1, Cis-3-(aminomethyl)-3-(3,4-dichlorophenyl)cyclohexanol] | 0.213 µM |  | 
NC[C@]1(c2ccc(Cl)c(Cl)c2)CCC[C@H](O)C1 (single isomer, unassigned) [184 E2, Cis-3-(aminomethyl)-3-(3,4-dichlorophenyl)cyclohexanol] | 0.789 µM |  | 
NC[C@@]1(c2ccc(Cl)c(Cl)c2)CCC[C@H](O)C1 (single isomer, unassigned) [185 E1, Trans-3-(aminomethyl)-3-(3,4-dichlorophenyl)cyclohexanol] | 0.421 µM |  | 
NC[C@@]1(c2ccc(Cl)c(Cl)c2)CCC[C@H](O)C1 (single isomer, unassigned) [185 E2, Trans-3-(aminomethyl)-3-(3,4-dichlorophenyl)cyclohexanol] | 0.121 µM |  | 
CN(C)C[C@]1(c2ccc(Cl)c(Cl)c2)CCC[C@H](O)C1 (single isomer, unassigned) [190 E1, Cis-3-(3,4-dichlorophenyl)-3-((dimethylamino)methyl)cyclohexanol] | 0.024 µM |  | 
CN(C)C[C@@]1(c2ccc(Cl)c(Cl)c2)CCC[C@H](O)C1 (single isomer, unassigned) [191 E2, Trans-3-(3,4-dichlorophenyl)-3-((dimethylamino)methyl)cyclohexanol] | 0.002 µM |  | 
CC1(O)CCC(CN)(c2ccc(Cl)c(Cl)c2)CC1 (stereo not shown) [Compound 272, 4-(aminomethyl)-4-(3,4-dichlorophenyl)-1-methylcyclohexanol] | 2.6 µM |  | 
CC1(O)CCC(CN)(c2ccc(Cl)c(Cl)c2)CC1 (stereo not shown) [Compound 275, 4-(aminomethyl)-4-(3,4-dichlorophenyl)-1-methylcyclohexanol] | 0.518 µM |  | 
NC[C@]1(c2ccc(Cl)c(Cl)c2)CC[C@H](O)CC1 [Compound 299, (1s,4s)-4-(aminomethyl)-4-(3,4-dichlorophenyl)cyclohexanol] |  | 3.87 µM | 
